Data from US20250002475A1 (EPICS THERAPEUTICS, priority 2023, published 2025).

Tests used:
Caov-3 cells = test: Caov-3 cellular viability assay (ATP-Lite, 72 h); format: cell-based; conditions: Homo sapiens, ATP-Lite luminescence, % viability relative to DMSO
Summary of the method: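 IC50 values come from concentration-response fits of luminescent ATP content (ATP-Lite One Step), normalised as % viability versus DMSO. Compound exposure was 72 h at 37 °C in RPMI-1640/10% FBS with 0.1% final DMSO. Wells held 10000 cells each.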

[1] = target: T1, recombinant METTL3/METTL14 complex (Homo sapiens, UniProt Q86U44); test: METTL3/14 Scintillation Proximity Assay (SPA), RNA methyltransferase activity; format: biochemical; conditions: 5.31 nM METTL3/14 complex, 250 nM RNA substrate, 1 μM 3H-SAM, 90 min; for compounds marked * best of the two separated forms
T1 construct: purchased Active Motif 311970; host or cells: Sf9 cells
T1 sequence (Q86U44 whole entry): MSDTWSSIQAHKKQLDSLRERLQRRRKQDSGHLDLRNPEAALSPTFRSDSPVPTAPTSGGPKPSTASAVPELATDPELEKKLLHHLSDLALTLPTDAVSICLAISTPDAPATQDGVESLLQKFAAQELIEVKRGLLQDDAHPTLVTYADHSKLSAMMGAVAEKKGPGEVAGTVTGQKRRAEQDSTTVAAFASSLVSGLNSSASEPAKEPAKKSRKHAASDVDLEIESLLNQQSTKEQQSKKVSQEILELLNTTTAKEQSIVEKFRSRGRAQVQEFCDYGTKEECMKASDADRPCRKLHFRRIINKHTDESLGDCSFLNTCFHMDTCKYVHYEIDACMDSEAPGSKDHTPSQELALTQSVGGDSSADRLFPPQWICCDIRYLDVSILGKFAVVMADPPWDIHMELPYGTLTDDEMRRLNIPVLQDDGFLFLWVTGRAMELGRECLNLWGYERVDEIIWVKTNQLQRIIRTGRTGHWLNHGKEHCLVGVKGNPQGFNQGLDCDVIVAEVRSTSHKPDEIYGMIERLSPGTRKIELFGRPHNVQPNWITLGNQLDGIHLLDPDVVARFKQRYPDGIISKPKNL
T1 sequence (Q9HCE5 whole entry partner): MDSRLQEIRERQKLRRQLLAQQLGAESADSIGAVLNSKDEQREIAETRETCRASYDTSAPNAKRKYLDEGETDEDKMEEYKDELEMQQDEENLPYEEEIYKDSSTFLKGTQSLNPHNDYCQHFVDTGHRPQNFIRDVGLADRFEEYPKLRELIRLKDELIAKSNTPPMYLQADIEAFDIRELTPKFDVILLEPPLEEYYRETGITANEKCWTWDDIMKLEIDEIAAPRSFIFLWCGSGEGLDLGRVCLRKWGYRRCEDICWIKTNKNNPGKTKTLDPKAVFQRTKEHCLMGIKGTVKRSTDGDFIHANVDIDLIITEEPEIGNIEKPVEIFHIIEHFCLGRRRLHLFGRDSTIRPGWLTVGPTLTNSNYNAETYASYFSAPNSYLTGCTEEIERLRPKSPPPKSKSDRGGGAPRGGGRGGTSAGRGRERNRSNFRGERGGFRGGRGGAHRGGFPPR

Kasumi-1 cells = test: Kasumi-1 cellular viability assay (ATP-Lite, 72 h); format: cell-based; conditions: Homo sapiens, ATP-Lite luminescence, % viability relative to DMSO
Summary of the method: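 Viability was read by ATP-Lite One Step luminescence after 72 h compound treatment at 37 °C/5% CO2, normalised to DMSO control, with IC50 fitted from concentration-response. Cells were Kasumi-1 (AML FAB M2) at 15000 per well in RPMI-1640/10% FBS, 0.1% DMSO final.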

IC50 [1] [nM] | SMILES | IC50 (Caov-3 cells) [nM] | IC50 (Kasumi-1 cells) [nM]
≤ 50 | COC1CN(c2cncc(-c3cn(C(C)n4ccc(N5CCC[C@@H](NCC6CC6)C5)cc4=O)nn3)n2)C1 (single isomer, unassigned) [Compound 246] | ≤ 500 | ≤ 500
≤ 50 | CC(n1cc(-c2cncc(N3CC4(CC4)C3)n2)nn1)n1ccc(N2CCC[C@@H](NCC3CC3)C2)cc1=O (single isomer, unassigned) [Compound 247] | ≤ 500 | ≤ 500
≤ 50 | CC(c1cnn(-c2cncc(N3CCCC3)c2)c1)n1ccc(N2CCC[C@@H](NCC3CC3)C2)cc1=O (single isomer, unassigned) [Compound 253] | ≤ 500 | ≤ 500
≤ 50 | CC(n1cc(-c2cncc(N3CC4(C3)CC4(F)F)n2)nn1)n1ccc(N2CCC[C@@H](NCC3CC3)C2)cc1=O (single isomer, unassigned) [Compound 254] | ≤ 500 | ≤ 500
≤ 50 | COc1cncc(-c2cn(C(C)c3ccc(N4CCC[C@@H](NCC5CCC5)C4)nn3)nn2)n1 (single isomer, unassigned) [Compound 258] | 500 to 5000 | 500 to 5000
≤ 50 | CC(c1ccc(N2CCC[C@@H](NCC3CC3)C2)cn1)n1cc(-c2cncc(N3CCCC3)n2)nn1 (single isomer, unassigned) [Compound 259] | ≤ 500 | ≤ 500
≤ 50 | CC(c1ccc(N2CCC[C@@H](NCC3CC3)C2)cn1)n1cc(-c2cncc(N(C)C)n2)nn1 (single isomer, unassigned) [Compound 260] | ≤ 500 | ≤ 500
≤ 50 | CC(c1ccc(N2CCC[C@@H](NCC3CCC3)C2)nn1)n1cc(-c2cncc(N3CC4CC4C3)n2)nn1 (single isomer, unassigned) [Compound 284] | ≤ 500 | ≤ 500
≤ 50 | CC(c1ccc(N2CCC[C@@H](NCC3CCC3)C2)nn1)n1cc(-c2cncc(N3CCCC3)n2)nn1 (single isomer, unassigned) [Compound 285] | ≤ 500 | ≤ 500
≤ 50 | CC(c1ccc(N2CCC[C@@H](NCC3CCC3)C2)cn1)n1cc(-c2cncc(N3CC4CC4C3)n2)nn1 (single isomer, unassigned) [Compound 286] | ≤ 500 | ≤ 500
≤ 50 | CC(c1ccc(N2CCC[C@@H](NCC3CCC3)C2)cn1)n1cc(-c2cncc(-n3cccn3)n2)nn1 (single isomer, unassigned) [Compound 293] | 500 to 5000 | 500 to 5000
≤ 50 | COc1cncc(-c2cn(C(C)c3ccc(N4CCC[C@@H](NCC5CCC5)C4)cc3)cn2)c1 (single isomer, unassigned) [Compound 296] | 500 to 5000 | 500 to 5000
≤ 50 | CC(c1ncc(N2CCC[C@@H](NCC3CCC3)C2)cc1F)n1cc(-c2cncc(N3CCCC3)n2)nn1 (single isomer, unassigned) [Compound 303] | ≤ 500 | ≤ 500
≤ 50 | CC(c1ccc(N2CCC[C@@H](NCC3CC3)C2)nn1)n1cc(-c2cncc(N3CCCC3)n2)nn1 (single isomer, unassigned) [Compound 309] | ≤ 500 | ≤ 500
≤ 50 | CC(c1ccc(N2CCC[C@@H](NCC3CC3)C2)nn1)n1cc(-c2cncc(C3CC3)c2)nn1 (single isomer, unassigned) [Compound 317] | ≤ 500 | ≤ 500
≤ 50 | CC(c1ccc(N2CCC[C@@H](NCC3CC3)C2)nn1)n1cnc(-c2cncc(N3CCCC3)n2)c1 (single isomer, unassigned) [Compound 340] | ≤ 500 | ≤ 500
≤ 50 | CC(c1ccc(N2CCC[C@@H](NCC3CC3)C2)nn1)n1cnc(-c2cncc(C3CC3)c2)c1 (single isomer, unassigned) [Compound 342] | ≤ 500 | ≤ 500
≤ 50 | CC(c1ccc(N2CCC[C@@H](NCC3CC3)C2)nn1)c1nnc(-c2cncc(N3CCCC3)n2)o1 (single isomer, unassigned) [Compound 347] | 500 to 5000 | 500 to 5000

IC50 [1] [nM] | SMILES | IC50 (Caov-3 cells) [nM] | IC50 (Kasumi-1 cells) [nM]
≤ 50 | CC(c1ccc(N2CCC[C@@H](NCC3(C)CC3)C2)nn1)n1cnc(-c2cncc(N3CCCC3)n2)c1 (single isomer, unassigned) [Compound 348] | ≤ 500 | ≤ 500
≤ 50 | CC(c1cnn(-c2cncc(N3CCCC3)n2)c1)c1ccc(N2CCC[C@@H](NCC3CC3)C2)cn1 (single isomer, unassigned) [Compound 354] | ≤ 500 | ≤ 500
≤ 50 | CC(c1ccc(N2CCC[C@@H](NCC3CC3)C2)cn1)n1cnc(-c2cncc(N3CCCC3)n2)c1 (single isomer, unassigned) [Compound 355] | ≤ 500 | ≤ 500
≤ 50 | CC(c1cnn(-c2cncc(C3CC3)c2)c1)c1ccc(N2CCC[C@@H](NCC3CC3)C2)cn1 (single isomer, unassigned) [Compound 356] | ≤ 500 | ≤ 500
≤ 50 | CC(c1ccc(N2CCC[C@@H](NCC3CC3)C2)cn1)n1cc(-c2cncc(C3CC3)c2)nn1 (single isomer, unassigned) [Compound 357] | ≤ 500 | ≤ 500
≤ 50 | CC(c1ccc(N2CCC[C@@H](NCC3CC3)C2)cn1)c1nnc(-c2cncc(N3CCCC3)n2)s1 (single isomer, unassigned) [Compound 360] | ≤ 500 | ≤ 500
≤ 50 | CC(c1ccc(N2CCC[C@@H](NCC3(C)CC3)C2)cn1)n1cnc(-c2cncc(N3CCCC3)n2)c1 (single isomer, unassigned) [Compound 365] | ≤ 500 | ≤ 500
≤ 50 | CC(c1ccc(N2CCC[C@@H](NCC3(C)CC3)C2)cn1)c1nnc(-c2cncc(N3CCCC3)n2)s1 (single isomer, unassigned) [Compound 366] | ≤ 500 | ≤ 500
≤ 50 | c1cc(C2(n3cc(-c4cncc(N5CCCC5)n4)nn3)COC2)ncc1N1CCCC(NCC2CCC2)C1 (stereo in doubt) [Compound 290, (R)-N-(cyclobutylmethyl)-1-(6-(3-(4-(6-(pyrrolidin-1-yl)pyrazin-2-yl)-1H-1,2,3-triazol-1-yl)oxetan-3-yl)pyridin-3-yl)piperidin-3-amine] | ≤ 500 | ≤ 500
≤ 50 | COc1cc(-c2cn(Cc3ccc(N4CCC[C@@H](NCC5CCC5)C4)nn3)nn2)c2cn[nH]c2c1 [Compound 001, (R)-N-(cyclobutylmethyl)-1-(6-((4-(6-methoxy-1H-indazol-4-yl)-1H-1,2,3-triazol-1-yl)methyl)pyridazin-3-yl)piperidin-3-amine] | ≤ 500 | 500 to 5000
≤ 50 | O=C(NCc1ccc(N2CCC[C@@H](NCC3CCC3)C2)nn1)c1cc(=O)n2ccccc2n1 [Compound 002, (R)-N-((6-(3-((cyclobutylmethyl)amino)piperidin-1-yl)pyridazin-3-yl)methyl)-4-oxo-4H-pyrido[1,2-a]pyrimidine-2-carboxamide] | > 5000 | > 5000
≤ 50 | c1cc(-c2cn(Cc3ccc(N4CCC[C@@H](NCC5CCC5)C4)nn3)nn2)c2cncn2c1 [Compound 003, (R)-N-(cyclobutylmethyl)-1-(6-((4-(imidazo[1,5-a]pyridin-8-yl)-1H-1,2,3-triazol-1-yl)methyl)pyridazin-3-yl)piperidin-3-amine] | > 5000 | 500 to 5000
≤ 50 | COc1cc(-c2cn(Cc3ccc(N4CCCC(N5CCC(C)(C)CC5)C4)nn3)nn2)c2cn[nH]c2c1 (stereo not drawn) [Compound 006, 4-(1-((6-(4,4-dimethyl-[1,3′-bipiperidin]-1′-yl)pyridazin-3-yl)methyl)-1H-1,2,3-triazol-4-yl)-6-methoxy-1H-indazole] | 500 to 5000 | 500 to 5000
≤ 50 | COc1cc(-c2cn(Cc3ccc(N4CCCC(N5CCC(C)CC5)C4)nn3)nn2)c2cn[nH]c2c1 (stereo not drawn) [Compound 007, 6-methoxy-4-(1-((6-(4-methyl-[1,3′-bipiperidin]-1′-yl)pyridazin-3-yl)methyl)-1H-1,2,3-triazol-4-yl)-1H-indazole] | 500 to 5000 | 500 to 5000
≤ 50 | COc1cc(-c2cn(Cc3ccc(N4CCCC(N5CCC6(CCC6)C5)C4)nn3)nn2)c2cn[nH]c2c1 (stereo not drawn) [Compound 008, 4-(1-((6-(3-(6-azaspiro[3.4]octan-6-yl)piperidin-1-yl)pyridazin-3-yl)methyl)-1H-1,2,3-triazol-4-yl)-6-methoxy-1H-indazole] | 500 to 5000 | > 5000
≤ 50 | c1cc2cc(-c3cn(Cc4ccc(N5CCC[C@@H](NCC6CCC6)C5)nn4)nn3)cnc2[nH]1 [Compound 009, (R)-1-(6-((4-(1H-pyrrolo[2,3-b]pyridin-5-yl)-1H-1,2,3-triazol-1-yl)methyl)pyridazin-3-yl)-N-(cyclobutylmethyl)piperidin-3-amine] | 500 to 5000 | 500 to 5000
50 to 500 | O=C(NCc1ccc(N2CCC[C@@H](NCC3CCC3)C2)nn1)c1cc(=O)n2ccsc2n1 [Compound 010, (R)-N-((6-(3-((cyclobutylmethyl)amino)piperidin-1-yl)pyridazin-3-yl)methyl)-5-oxo-5H-thiazolo[3,2-a]pyrimidine-7-carboxamide] | > 5000 | > 5000
